Laboratory results: patent publication US20040097408A1, “Compounds regulating cell proliferation and differentiation” (priority 2001, published 2004)
Values joined by “and” are separate entries in the source; they are usually repeats but may differ in a detail not shown here. Equal values may be shown once.

Tests used:
A6 cells = experiment: apoptosis time course (DNA fragmentation, propidium iodide staining, cytochrome c release); format: cell-based, mouse; conditions: 3 μM F16, 48, 60 and 72 hr, FIG. 6
Experimental: The DNA fragmentation assay was conducted by isolating DNA from 1×10^6 of untreated or F16 treated for 48, 60 and 72 hr using Suicide-Track TM (Oncogene) according to manufacturer's procedure. Samples were resolved by agarose gel electrophoresis and ethidium-bromide stained. Cytochrome c release was measured by immunofluorescence as follows. Untreated or F16-treated A6 cells were washed and fixed with ice-cold 3.7% paraformaldehyde at RT, permeabilized for with ice-cold 0.01% (v/v) Nonidet P-40 for 20 min and incubated with 0.5% BSA/PB. Immunodetection was performed with monoclonal anti-cytochrome c antibody (PharMingen) and secondary anti-mouse-TRITC conjugated antibody. Cells were photographed under Axioskop using a Spot Camera (Diagnostic Instruments).

[1] = level of F16 in serum of mice by fluorescence; format: in vivo, mouse; conditions: 12.5 or 25 mg/kg intraperitoneally
Experimental: To determine the levels of F16 present in the blood of mice after injection of F16, two mice were injected intraperitoneally with 25 mg/kg F16 and two mice were injected intraperitoneally with 12.5 mg/kg of F16. […] 40-50 μL of blood was obtained from the tail vein of the mice and placed into tubes incubated in ice and containing Heparin to a final concentration of 20U/mL of blood. Samples were centrifuged at 6,000 rpm for 3 minutes in the cold room. Serum was transfered to a clean tube and stored at −70° C. until further processing. 2 μL of serum samples were spotted onto Whatman paper, alongside with dilutions of F16 as a standard. Since F16 is a fluorescent compound (see below), the presence of F16 was deteremined by measuring its fluorescence emission using the Storm 860 (Molecular Dynamics). The concentration of F16 in serum samples was estimated by visual comparison to the intensity of the standard.

EpH-A6 cells = experiment: tumor growth of EpH-A6 cells injected subcutaneously in nude mice; format: in vivo, mouse; design: Tumor weight, right flank / Tumor weight, left flank: unit not given here; conditions: for Tumor weight, left flank / Tumor weight, right flank: individual nude mice, F16 20 mg/kg intraperitoneally twice a day, 20 mg/kg
Experimental: Twenty nude mice of 8-10 weeks of age were injected subcutaneously with 10^6 EpH-A6 cells in the left and right flanks. Three days after the cell injection, a 20 mg/kg dose of F16 (40% DMSO/60% PBS) was injected intraperitoneally twice a day to a group of 10 mice, and an equivalent dose of vehicle to the remaining 10 mice (placebo mice). After 10 days of treatment, tumors were removed from all mice and weighted. Tumor tissue was used for FACS analysis, pathology, and some were stored at −70° C. until further processing.

16MB9a = experiment: uptake/retention of F16 by fluorescence microscopy; format: cell-based, mouse; conditions: 3 μM F16, 24 hours
Experimental: (§1) The following cell lines were used in this Example: EpH4-A6 (Neu^T); EpH4-EV; Neu-initiated mouse tumor cell lines NF980, NAF and nNeu; Ras-initated tumor cell lines SH1.1 and AC816; a Myc-initiated tumor cell line 16MB9a; and normal mammary epethileal cells HC11, NuMg and EpH4. The cells were grown on 60 mm plates and incubated with medium alone or medium containing 3 μM F16 for 24 hours at 37° C. The fluorescence signal of F16 was visualized under inverted microscope Axiovert (Zeiss) using a standard fluorescein filter set. Cells were photographed using a digital camera D1 (Nikon).

EpH4-A6 cells [2] = experiment: uptake/retention of F16 by fluorescence microscopy; format: cell-based, mouse; conditions: 3 μM F16, 24 hours
Experimental: as §1

EpH4-EV cells = experiment: uptake/retention of F16 by fluorescence microscopy; format: cell-based, mouse; conditions: 3 μM F16, 24 hours
Experimental: as §1

[3] = system: ras- and neu-initiated tumor cell lines; experiment: uptake/retention of F16 by fluorescence microscopy; format: cell-based, mouse; conditions: 3 μM F16, 24 hours
Experimental: as §1

EpH4-A6 cells [4] = experiment: ATP levels (ATP Bioluminescence Assay); format: cell-based, mouse; conditions: 3 μM F16, 24 hr, FIG. 10
Experimental: One of the major roles of mitochondria is to supply energy to the cell. To assess alterations in mitochondrial function, ATP levels were determined in F16-treated cells by the luciferase-catalyzed ATP-dependent bioluminescent oxidation of luciferin using the ATP Bioluminescence Assay Kit (Roche). EpH4-EV and EpH4-A6 cells were grown in the absence or in the presence of 3 μM F16 for 15 hr and 24 hr. As a control A6 were treated with 5 μM FCCP (Sigma). Cells were then harvested, counted and equivalent numbers used for each determination, according to manufacturer's procedure. Each determination was done in triplicate, and the entire experiment was performed twice.

[5] = system: isolated mouse liver mitochondria; experiment: mitochondrial membrane potential by F16 fluorescence; format: biochemical; conditions: 1 μM and 50 μM F16
Experimental: Mitochondria were isolated from liver of Balb/c7 mice by standard differential centrifugation, and resuspended in isolation buffer (0.2 M sucrose, 10 mM Tris-MOPS pH 7.4, 0.1 mM EGTA-Tris, 0.1% delipidated BSA) (Costantini et al. (1995) Toxicology (99) 77-88). Protein concentration was determined by Bradford assay. For swelling determination, changes in side scatter at 545±2.5 nm of a 0.5 mg/ml suspension of mitochondria in experimental buffer (125 mM KCl, 10 mM Tris-MOPS pH 7.4, 1 mM Pi, 5 mM glutamate, 2.5 mM malate, 10 μM EGTA-Tris, pH 7.4) were monitored by using LS-50B spectrofluorimeter. To monitor changes in mitochondrial membrane potential, the intrinsic potentiometric properties of F16 were used. Mitochondria (0.5 mg/ml) were incubated in experimental buffer with the indicated concentrations of F16 and changes in F16 fluorescence intensity were measured, using a LS-50B spectrofluorimeter at 25° C., with excitation and emission wavelengths set at 415±2.5 nm and 520±5 nm, respectively. All reactions were performed at 25° C. and the instrument was equipped with magnetic stirring.
The fluorescent properties of F16 were used for this purpose. It was determined whether the fluorescence of a 1 μM solution of F16 changed in response to mitochondrial energization and depolarization. […] Preincubation of mitochondria with the PTP inhibitor CsA only partially blunted this effect.

SMILES: C[n+]1ccc(/C=C/c2c[nH]c3ccccc23)cc1.[I-] [F16]
- cell death on prolonged incubation (A6 cells): increased cell death
- F16 in blood 20 hours after the injection [1]: not detected
- time of the maximum level of F16 in the blood ([1]; FIG. 7): 1 to 3 h
- level of F16 in the blood at 7 hours after the injection ([1]; compared to standard): nanomolar range
- maximum level of F16 in the blood ([1]; compared to standard): micromolar range
- Tumor weight, left flank (EpH-A6 cells; Experiment #1, 10 days): 0.1131 and 0.0293 and 0.1365 and 0.021 and 0.1463 and 0.1127 and 0.1186 and 0.097 and 0.1163 and 0.1174
- Tumor weight, right flank (EpH-A6 cells; Experiment #1, 10 days): 0.214 and 0.0666 and 0.1984 and 0.1597 and 0.1645 and 0.1127 and 0.2314 and 0.2412 and 0.2408 and 0.2174
- Tumor weight, left flank (EpH-A6 cells; Experiment #2, 10 days): 0.054 and 0.4294 and 0.3368 and 0.041 and 0.2375 and 0.2087 and 0.1809 and 0.0454 and 0.1417 and 0
- Tumor weight, right flank (EpH-A6 cells; Experiment #2, 10 days): 0.022 and 0.632 and 0.2078 and 0.1798 and 0.1063 and 0.2621 and 0.1315 and 0.1971 and 0.3451 and 0
- difference in tumor size relative to the control mice (EpH-A6 cells; F16 20 mg/kg twice a day, 10 days): 2-3 fold
- cells undergoing mitosis in tumors (pathology) (EpH-A6 cells; at least some F16 treated tumors compared to untreated tumors): decrease in number of cells undergoing mitosis
- uptake/retention of F16 (fluorescence) (16MB9a): does not show fluoresence
- uptake/retention of F16 (fluorescence) (EpH4-A6 cells [2]): very intense fluorescent green punctuated staining
- uptake/retention of F16 (fluorescence) (EpH4-EV cells): do not show any uptake/retention
- uptake/retention of F16 (fluorescence) [3]: very intense fluorescent green punctuated staining
- ATP pool (EpH4-A6 cells [4]): significant depletion in the ATP pool
- mitochondrial depolarization [5]: directly causes mitochondrial depolarization
